Source: patent publication US10479780B2, “Aminopyrazole derivatives” (Chugai Seiyaku Kabushiki Kaisha, priority 2015, dated 2019)

Columns and labels:
Type in all cases: biochemical
[1] = target: T1, human Src enzyme (Homo sapiens, UniProt P12931); experiment: Src enzyme inhibitory activity (time-resolved fluorometry, biotinylated peptide phosphorylation); conditions: read-out: SRC_IC50
T1 construct: purchased Carna Biosciences, Inc. 08-173
In short: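 Compounds were tested for blocking tyrosine phosphorylation of a biotinylated peptide substrate by recombinant human Src. Phosphorylated product was quantified by time-resolved fluorometry using europium cryptate and XL665 conjugates, and IC50 was calculated against the compound-free control.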

[2] = target: T2, human Lck enzyme (Homo sapiens, UniProt P06239); experiment: Lck enzyme inhibitory activity (time-resolved fluorometry, biotinylated peptide phosphorylation); conditions: read-out: LCK_IC50
T2 construct: purchased Carna Biosciences, Inc. 08-170
In short: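 Readout pairs a europium cryptate-labelled anti-phosphotyrosine antibody with XL665-streptavidin, measured by time-resolved fluorescence. IC50 derived from percent inhibition against untreated controls.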

[3] = target: T3, human Yes1 enzyme (Homo sapiens, UniProt P07947); experiment: Yes1 enzyme inhibitory activity (time-resolved fluorometry, biotinylated peptide phosphorylation); conditions: read-out: YES_IC50
T3 construct: made in house
In short: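 Inhibition was expressed against a compound-free control to give IC50, using TR-FRET read-out (Eu-cryptate anti-pTyr antibody, streptavidin-XL665).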

T3 sequence (P07947 whole entry): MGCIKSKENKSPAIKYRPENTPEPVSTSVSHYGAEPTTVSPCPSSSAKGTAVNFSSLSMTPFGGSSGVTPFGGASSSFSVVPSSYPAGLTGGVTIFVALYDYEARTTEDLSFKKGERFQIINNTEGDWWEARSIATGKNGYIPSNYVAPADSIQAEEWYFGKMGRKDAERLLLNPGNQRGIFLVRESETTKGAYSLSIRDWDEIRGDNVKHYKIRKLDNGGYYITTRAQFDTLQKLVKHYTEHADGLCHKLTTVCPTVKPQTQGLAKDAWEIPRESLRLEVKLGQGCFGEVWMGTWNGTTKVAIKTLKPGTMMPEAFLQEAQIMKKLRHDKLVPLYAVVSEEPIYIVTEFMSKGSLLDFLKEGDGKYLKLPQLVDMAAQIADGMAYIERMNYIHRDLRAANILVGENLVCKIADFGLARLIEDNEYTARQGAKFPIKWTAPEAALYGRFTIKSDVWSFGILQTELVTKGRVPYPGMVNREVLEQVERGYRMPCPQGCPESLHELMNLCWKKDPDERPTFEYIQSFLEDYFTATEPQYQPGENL
T1 sequence (P12931 whole entry): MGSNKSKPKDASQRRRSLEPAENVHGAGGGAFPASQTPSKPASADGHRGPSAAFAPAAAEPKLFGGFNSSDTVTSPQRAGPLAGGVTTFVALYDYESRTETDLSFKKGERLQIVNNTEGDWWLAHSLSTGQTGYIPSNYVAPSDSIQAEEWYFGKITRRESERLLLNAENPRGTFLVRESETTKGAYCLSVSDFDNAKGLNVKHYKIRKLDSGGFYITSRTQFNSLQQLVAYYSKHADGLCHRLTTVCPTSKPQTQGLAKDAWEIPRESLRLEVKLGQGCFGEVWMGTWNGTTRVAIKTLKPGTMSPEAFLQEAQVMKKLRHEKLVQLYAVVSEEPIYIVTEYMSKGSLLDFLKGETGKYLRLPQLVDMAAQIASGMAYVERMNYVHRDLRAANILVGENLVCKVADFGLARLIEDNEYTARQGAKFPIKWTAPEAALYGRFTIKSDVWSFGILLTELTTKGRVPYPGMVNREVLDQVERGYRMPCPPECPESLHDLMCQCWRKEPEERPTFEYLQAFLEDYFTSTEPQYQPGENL
T2 sequence (P06239 whole entry): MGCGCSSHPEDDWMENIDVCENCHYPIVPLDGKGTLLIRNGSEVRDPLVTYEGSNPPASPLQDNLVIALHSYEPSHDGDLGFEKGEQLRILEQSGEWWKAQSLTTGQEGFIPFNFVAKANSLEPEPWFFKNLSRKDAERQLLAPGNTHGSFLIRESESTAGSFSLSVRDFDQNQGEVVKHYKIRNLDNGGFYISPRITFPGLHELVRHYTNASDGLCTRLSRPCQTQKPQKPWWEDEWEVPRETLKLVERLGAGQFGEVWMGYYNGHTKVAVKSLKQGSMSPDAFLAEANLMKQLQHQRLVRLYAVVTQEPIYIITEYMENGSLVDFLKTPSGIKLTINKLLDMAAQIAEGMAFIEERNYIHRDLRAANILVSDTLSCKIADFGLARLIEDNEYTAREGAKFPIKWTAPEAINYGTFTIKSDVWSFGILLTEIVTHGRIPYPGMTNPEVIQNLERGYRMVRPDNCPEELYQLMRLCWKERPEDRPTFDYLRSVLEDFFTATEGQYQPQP

IC50 [1]	IC50 [2]	IC50 [3]	Structure (SMILES)
73 nM	19 nM	2.8 nM	Cc1cc2cc(C(=O)c3cnn(-c4cnc(Oc5c(F)cccc5F)cc4C)c3N)[nH]c2cc1N1CC(C)(C)NS1(=O)=O [Example 5-1-313, [5-amino-1-[6-(2,6-difluorophenoxy)-4-methylpyridin-3-yl]pyrazol-4-yl]-[6-(4,4-dimethyl-1,1-dioxo-1,2,5-thiadiazolidin-2-yl)-5-methyl-1H-indol-2-yl]methanone]
480 nM	150 nM	9.6 nM	Cc1cc2cc(C(=O)c3cnn(-c4cnc(Oc5c(F)cccc5F)cc4C)c3N)[nH]c2cc1NS(=O)(=O)C1CCCCC1 [Example 5-1-314, N-[2-[5-amino-1-[6-(2,6-difluorophenoxy)-4-methylpyridin-3-yl]pyrazole-4-carbonyl]-5-methyl-1H-indol-6-yl]cyclohexanesulfonamide]
330 nM	130 nM	8.1 nM	Cc1cc(Oc2c(F)cccc2F)ncc1-n1ncc(C(=O)c2cc3cc(OCC(F)F)c(NS(=O)(=O)C4CCCCC4)cc3[nH]2)c1N [Example 5-1-315, N-[2-[5-amino-1-[6-(2,6-difluorophenoxy)-4-methylpyridin-3-yl]pyrazole-4-carbonyl]-5-(2,2-difluoroethoxy)-1H-indol-6-yl] cyclohexanesulfonamide]
170 nM	29 nM	6.2 nM	Cc1cc2cc(C(=O)c3cnn(-c4cnc(Oc5c(F)cccc5F)cc4C)c3N)[nH]c2cc1N1C(=O)NC2(CCCCC2)C1=O [Example 5-1-316, 3-[2-[5-amino-1-[6-(2,6-difluorophenoxy)-4-methylpyridin-3-yl]pyrazole-4-carbonyl]-5-methyl-1H-indol-6-yl]-1,3-diazaspiro[4.5] decane-2,4-dione]
500 nM	110 nM	16 nM	Cc1cc2cc(C(=O)c3cnn(-c4cnc(Oc5c(F)cccc5F)cc4C)c3N)[nH]c2cc1NS(=O)(=O)C1CCCC1 [Example 5-1-317, N-[2-[5-amino-1-[6-(2,6-difluorophenoxy)-4-methylpyridin-3-yl]pyrazole-4-carbonyl]-5-methyl-1H-indol-6-yl]cyclopentanesulfonamide]
350 nM	120 nM	10 nM	Cc1cc(Oc2c(F)cccc2F)ncc1-n1ncc(C(=O)c2cc3cc(OCC(F)F)c(NS(=O)(=O)C4CCCC4)cc3[nH]2)c1N [Example 5-1-318, N-[2-[5-amino-1-[6-(2,6-difluorophenoxy)-4-methylpyridin-3-yl]pyrazole-4-carbonyl]-5-(2,2-difluoroethoxy)-1H-indol-6-yl] cyclopentanesulfonamide]
88 nM	18 nM	2.8 nM	Cc1cc(Oc2c(F)cccc2F)ncc1-n1ncc(C(=O)c2cc3cc(OCC(F)F)c(NS(=O)(=O)C4CCOCC4)cc3[nH]2)c1N [Example 5-1-319, N-[2-[5-amino-1-[6-(2,6-difluorophenoxy)-4-methylpyridin-3-yl]pyrazole-4-carbonyl]-5-(2,2-difluoroethoxy)-1H-indol-6-yl]oxane-4-sulfonamide]
680 nM	140 nM	18 nM	Cc1cc(Oc2c(F)cccc2F)ncc1-n1ncc(C(=O)c2cc3cc(SC(F)F)c(NS(=O)(=O)CCCF)cc3[nH]2)c1N [Example 5-1-320, N-[2-[5-amino-1-[6-(2,6-difluorophenoxy)-4-methylpyridin-3-yl]pyrazole-4-carbonyl]-5-(difluoromethylsulfanyl)-1H-indol-6-yl]-3-fluoropropane-1-sulfonamide]
130 nM	34 nM	5.8 nM	Cc1cc(Oc2c(F)cccc2F)ncc1-n1ncc(C(=O)c2cc3cc(OCC(F)F)c(N4CC(C)(C)NS4(=O)=O)cc3[nH]2)c1N [Example 5-1-321, [5-amino-1-[6-(2,6-difluorophenoxy)-4-methylpyridin-3-yl]pyrazol-4-yl]-[5-(2,2-difluoroethoxy)-6-(4,4-dimethyl-1,1-dioxo-1,2,5-thiadiazolidin-2-yl)-1H-indol-2-yl]methanone]
70 nM	22 nM	4.1 nM	Cc1cc(Oc2ccccc2F)ccc1-n1ncc(C(=O)c2cc3cc(OCC(F)F)c(N4CC(C)(C)NS4(=O)=O)cc3[nH]2)c1N [Example 5-1-322, [5-amino-1-[4-(2-fluorophenoxy)-2-methylphenyl]pyrazol-4-yl]-[5-(2,2-difluoroethoxy)-6-(4,4-dimethyl-1,1-dioxo-1,2,5-thiadiazolidin-2-yl)-1H-indol-2-yl]methanone]
230 nM	40 nM	9.1 nM	Cc1cc(Oc2ccccc2F)ccc1-n1ncc(C(=O)c2cc3cc(OCC(F)F)c(N4CC5(CCCC5)NS4(=O)=O)cc3[nH]2)c1N [Example 5-1-323, [5-amino-1-[4-(2-fluorophenoxy)-2-methylphenyl]pyrazol-4-yl]-[5-(2,2-difluoroethoxy)-6-(2,2-dioxo-2λ6-thia-1,3-diazaspiro[4.4]nonan-3-yl)-1H-indol-2-yl] methanone]
230 nM	19 nM	10 nM	Cc1cc(Oc2c(F)cccc2F)ncc1-n1ncc(C(=O)c2cc3cc(SC(F)F)c(N4C(=O)NC(C)(C)C4=O)cc3[nH]2)c1N [Example 5-1-324, 3-[2-[5-amino-1-[6-(2,6-difluorophenoxy)-4-methylpyridin-3-yl]pyrazole-4-carbonyl]-5-(difluoromethylsulfanyl)-1H-indol-6-yl]-6,5-dimethylimidazolidine-2,4-dione]
32 nM	18 nM	1.6 nM	Cc1cc(Oc2ccccc2F)ccc1-n1ncc(C(=O)c2cc3cc(OCC(F)F)c(NS(=O)(=O)C4CCOCC4)cc3[nH]2)c1N [Example 5-1-325, N-[2-[5-amino-1-[4-(2-fluorophenoxy)-2-methylphenyl]pyrazole-4-carbonyl]-5-(2,2-difluoroethoxy)-1H-indol-6-yl]oxane-4-sulfonamide]
54 nM	25 nM	0.85 nM	Cc1cc(Oc2ccccc2F)ncc1-n1ncc(C(=O)c2cc3cc(OCC(F)F)c(NS(=O)(=O)C4CCOCC4)cc3[nH]2)c1N [Example 5-1-326, N-[2-[5-amino-1-[6-(2-fluorophenoxy)-4-methylpyridin-3-yl]pyrazole-4-carbonyl]-5-(2,2-difluoroethoxy)-1H-indol-6-yl]oxane-4-sulfonamide]
920 nM	270 nM	7.3 nM	COc1cccc(S(=O)(=O)Nc2cc3[nH]c(C(=O)c4cnn(-c5cnc(Oc6c(F)cccc6F)cc5C)c4N)cc3cc2OCC(F)F)c1 [Example 5-1-327, N-[2-[5-amino-1-[6-(2,6-difluorophenoxy)-4-methylpyridin-3-yl]pyrazole-4-carbonyl]-5-(2,2-difluoroethoxy)-1H-indol-6-yl]-3-methoxybenzenesulfonamide]
890 nM	230 nM	14 nM	Cc1cc(Oc2c(F)cccc2F)ncc1-n1ncc(C(=O)c2cc3cc(OCC(F)F)c(NS(=O)(=O)c4ccccc4Cl)cc3[nH]2)c1N [Example 5-1-328, N-[2-[5-amino-1-[6-(2,6-difluorophenoxy)-4-methylpyridin-3-yl]pyrazole-4-carbonyl]-5-(2,2-difluoroethoxy)-1H-indol-6-yl]-2-chlorobenzenesulfonamide]
720 nM	150 nM	9 nM	COc1ccccc1S(=O)(=O)Nc1cc2[nH]c(C(=O)c3cnn(-c4cnc(Oc5c(F)cccc5F)cc4C)c3N)cc2cc1OCC(F)F [Example 5-1-329, N-[2-[5-amino-1-[6-(2,6-difluorophenoxy)-4-methylpyridin-3-yl]pyrazole-4-carbonyl]-5-(2,2-difluoroethoxy)-1H-indol-6-yl]-2-methoxybenzenesulfonamide]
700 nM	200 nM	11 nM	Cc1cc(Oc2c(F)cccc2F)ncc1-n1ncc(C(=O)c2cc3cc(OCC(F)F)c(NS(=O)(=O)c4cc(F)cc(F)c4)cc3[nH]2)c1N [Example 5-1-330, N-[2-[5-amino-1-[6-(2,6-difluorophenoxy)-4-methylpyridin-3-yl]pyrazole-4-carbonyl]-5-(2,2-drfluoroethoxy)-1H-indol-6-yl]-3,5-difluorobenzenesulfonamide]
330 nM	180 nM	7 nM	COc1ccc(Cl)c(S(=O)(=O)Nc2cc3[nH]c(C(=O)c4cnn(-c5ccc(Oc6ccccc6F)cc5C)c4N)cc3cc2OCC(F)F)c1 [Example 5-1-331, N-[2-[5-amino-1-[4-(2-fluorophenoxy)-2-methylphenyl]pyrazole-4-carbonyl]-5-(2,2-difluoroethoxy)-1H-indol-6-yl]-2-chloro-5-methoxybenzenesulfonamide]
12 nM	2.5 nM	0.79 nM	Cc1cc(Oc2c(F)cccc2F)ncc1-n1ncc(C(=O)c2cc3cc(OCC(F)F)c(N4C(=O)NC5(CCNCC5)C4=O)cc3[nH]2)c1N [Example 5-1-332, 3-[2-[5-amino-1-[6-(2,6-difluorophenoxy)-4-methylpyridin-3-yl]pyrazole-4-carbonyl]-5-(2,2-difluoroethoxy)-1H-indol-6-yl]-1,3,8-triazaspiro[4.5]decane-2,4-dione]
140 nM	19 nM	2 nM	Cc1cc2cc(C(=O)c3cnn(-c4cnc(Oc5ccccc5F)cc4C)c3N)[nH]c2cc1NS(=O)(=O)C1CCOCC1 [Example 5-1-333, N-[2-[5-amino-1-[6-(2-fluorophenoxy)-4-methylpyridin-3-yl]pyrazole-4-carbonyl]-5-methyl-1H-indol-6-yl]oxane-4-sulfonamide]
